ChEMBL document CHEMBL3600375, “Anti-Plasmodium falciparum activity of quinoline-sulfonamide hybrids” (Bioorg Med Chem, 2015)

Columns and labels:
Plasmodium falciparum = assay: Antiplasmodial activity against chloroquine and sulfadoxine-resistant and mefloquine-sensitive Plasmodium falciparum W2 infected in human erythrocytes by anti-HRP2 assay; assay type: functional, organism-based
[1] = Cytotoxicity against African green monkey BGM cells incubated for 18 hrs by neutral red assay; assay type: cell-based; conditions: chlorocebus aethiops, read-out: MLC50
[2] = Selectivity index, ratio of MLC50 for African green monkey BGM cells to IC50 for chloroquine and sulfadoxine-resistant and mefloquine-sensitive Plasmodium falciparum W2; assay type: toxicity, cell-based; conditions: read-out: Selectivity Index
Plasmodium berghei [3] = assay: Antiplasmodial activity against Plasmodium berghei NK65 infected in mouse assessed as inhibition of inhibition of parasitemia at 10 mg/kg, po treated for 3 consecutive days 24 hrs after parasite infection and measured on day 7 after inoculation by Giemsa staining based microscopy; assay type: functional
Plasmodium berghei [4] = assay: Antiplasmodial activity against Plasmodium berghei NK65 infected in mouse assessed as inhibition of inhibition of parasitemia at 10 mg/kg, po treated for 3 consecutive days 24 hrs after parasite infection and measured on day 5 after inoculation by Giemsa staining based microscopy; assay type: functional
Plasmodium berghei [5] = assay: Antiplasmodial activity against Plasmodium berghei NK65 infected in mouse assessed as inhibition of inhibition of parasitemia at 20 mg/kg, po treated for 3 consecutive days 24 hrs after parasite infection and measured on day 7 after inoculation by Giemsa staining based microscopy; assay type: functional
Plasmodium berghei [6] = assay: Antiplasmodial activity against Plasmodium berghei NK65 infected in mouse assessed as inhibition of inhibition of parasitemia at 20 mg/kg, po treated for 3 consecutive days 24 hrs after parasite infection and measured on day 5 after inoculation by Giemsa staining based microscopy; assay type: functional
Plasmodium berghei [7] = assay: Antiplasmodial activity against Plasmodium berghei NK65 infected in mouse assessed as inhibition of inhibition of parasitemia at 1 mg/kg, po treated for 3 consecutive days 24 hrs after parasite infection and measured on day 5 after inoculation by Giemsa staining based microscopy; assay type: functional
Plasmodium berghei [8] = assay: Antiplasmodial activity against Plasmodium berghei NK65 infected in mouse assessed as inhibition of inhibition of parasitemia at 1 mg/kg, po treated for 3 consecutive days 24 hrs after parasite infection and measured on day 7 after inoculation by Giemsa staining based microscopy; assay type: functional

Row | Compound | IC50 (Plasmodium falciparum) | CC50 at 18 h [1] | selectivity ratio [2] | inhibition in vivo at 10 mg/kg (Plasmodium berghei [3]) | inhibition in vivo at 10 mg/kg (Plasmodium berghei [4]) | inhibition in vivo at 20 mg/kg (Plasmodium berghei [5]) | inhibition in vivo at 20 mg/kg (Plasmodium berghei [6]) | inhibition in vivo at 1 mg/kg (Plasmodium berghei [7]) | inhibition in vivo at 1 mg/kg (Plasmodium berghei [8])
1 | O=S(=O)(NCCNc1ccnc2cc(Cl)ccc12)c1ccc(Cl)cc1 | 0.68 µM | 116 µM | 171 |  |  |  |  |  | 
2 | O=S(=O)(NCCNc1ccnc2cc(Cl)ccc12)c1ccccc1 | 1.63 µM | 122 µM | 74.7 |  |  |  |  |  | 
3 | Cc1ccc(S(=O)(=O)NCCNc2ccnc3cc(Cl)ccc23)cc1 | 0.48 µM | 125 µM | 261 |  |  |  |  |  | 
4 | O=S(=O)(NCCNc1ccnc2cc(Cl)ccc12)c1ccc(Br)cc1 | 1.21 µM | 88.8 µM | 73.3 |  |  |  |  |  | 
5 | O=S(=O)(NCCNc1ccnc2cc(Cl)ccc12)c1ccc(F)cc1 | 1.13 µM | 203 µM | 180 |  |  |  |  |  | 
6 | O=S(=O)(NCCCNc1ccnc2cc(Cl)ccc12)c1ccccc1 | 0.35 µM | 275 µM | 784 |  |  |  |  |  | 
7 | Cc1ccc(S(=O)(=O)NCCCNc2ccnc3cc(Cl)ccc23)cc1 | 0.28 µM | 95 µM | 339 |  |  |  |  |  | 
8 | O=S(=O)(NCCCNc1ccnc2cc(Cl)ccc12)c1ccc(Cl)cc1 | 0.27 µM | 103 µM | 380 |  |  |  |  |  | 
9 | O=S(=O)(NCCCNc1ccnc2cc(Cl)ccc12)c1ccc(Br)cc1 | 0.29 µM | 22 µM | 75.8 |  |  |  |  |  | 
10 | O=S(=O)(NCCCNc1ccnc2cc(Cl)ccc12)c1ccc(F)cc1 | 0.1 µM | 339 µM | 3390 | 27% | 47% |  |  |  | 
11 | O=S(=O)(NCCCCNc1ccnc2cc(Cl)ccc12)c1ccccc1 | 0.4 µM | > 257 µM | > 642 |  |  |  |  |  | 
12 | O=S(=O)(NCCCCNc1ccnc2cc(Cl)ccc12)c1ccc(Cl)cc1 | 0.09 µM | 99.2 µM | 1100 | 33% | 49% |  |  |  | 
13 | O=S(=O)(NCCCCNc1ccnc2cc(Cl)ccc12)c1ccc(Br)cc1 | 0.15 µM | 14.9 µM | 99.3 |  |  |  |  |  | 
14 | O=S(=O)(NCCCCNc1ccnc2cc(Cl)ccc12)c1ccc(F)cc1 | 0.15 µM | 155 µM | 1030 | 7% | 30% |  |  |  | 
15 | Cc1ccc(S(=O)(=O)NCCCCNc2ccnc3cc(Cl)ccc23)cc1 | 0.05 µM | 107 µM | 2490 | 0% | 27% |  |  |  | 
16 | CCN(CC)CCCC(C)Nc1ccnc2cc(Cl)ccc12 (centres undefined) [CHLOROQUINE] |  |  |  |  |  | 76% | 93% |  | 
17 | COc1ncnc(NS(=O)(=O)c2ccc(N)cc2)c1OC [SULFADOXINE] | > 15.5 µM | > 310 µM |  |  |  |  |  | 100% | 96%
